According to patent US20070105162A1, “Monovalent avidin and streptavidin compositions” (Massachusetts Institute of Technology, priority 2005, published 2007):

How the values were obtained:
[1] = Electrospray ionization mass spectrometry: biotin molecules bound per streptavidin tetramer; format: binding
Procedure: Biospin columns (Bio-Rad) were equilibrated by spinning 5 times in 500 μL of 15 mM ammonium acetate pH 7.8 at 1000 g for 2 min. Then 30-50 μL of 30 μM protein in PBS was buffer-exchanged into 15 mM ammonium acetate pH 7.8 using the pre-equilibrated Biospin columns by spinning for 20 s at 1000 g. To ensure that PBS was completely removed, the flow-through was again buffer-exchanged with a second pre-equilibrated column for 20 s. This procedure also removed free biotin when the starting 30 μM streptavidin forms were incubated with 200 μM biotin. Less than 2 min before introducing into the mass spectrometer, the buffer-exchanged samples were diluted with a solution of 1:1 15 mM ammonium acetate pH 7.8 and 78% acetonitrile, 0.01% trifluoroacetic acid.
(§1) An Advion nanospray robot (Advion BioSystems, Ithica, N.Y.) with a back-pressure of 0.45 Psi introduced the samples into the mass spectrometer, an 8.5 Tesla custom-built Electrospray Ionisation-Fourier Transform Mass Spectrometer. To visualize the non-covalent tetramers and non-covalent biotin binding in the high m/z range, the following settings were used: Chirp rate=750 Hz, Amplitude=0.5 V p-p, Tube lens=200 V, Capillary heater 2 V, Quad filter=−20 V, Skimmer=0 V, Capillary offset=34 V, X-fer=−110 V, Leak gas=4.2×10^−5 Torr. The capillary heater was kept low and the Quad filter and Skimmer were kept either high or off to prevent subunit dissociation. The transfer was set to this low value of −110 V in order to visualize the high m/z region.
The masses were calculated manually by first determining the charge state. The final mass was determined by multiplying the observed m/z by the charge and subtracting the mass corresponding to the addition of protons to give that charge. For example, for the 15+charge state of D4 an m/z of 3534.159 was obtained. (15×3534.159)-(15×1.00727) gave a mass for this ion of 52,997 Da. This calculation was repeated for each charge state and the mean and standard deviation reported. The spectra were calibrated with tetrameric streptavidin, after its monomer mass was determined under denaturing conditions (Mr=13,271.4 Da). Average masses were predicted from the DNA sequence, using the ExPASy PeptideMass Calculator (ca.expasy.org/tools/peptide-mass.html) and assuming removal of the N-terminal formyl-Methionine.
The different tetramers were purified using a Ni-nitrilotriacetic acid (NTA) column, eluting according to the number of His6-tags with increasing concentrations of imidazole. […] The tetramer composition was further confirmed by boiling the samples before loading on SDS-PAGE, to determine the ratio of A to D subunits (FIG. 1D), and by electrospray ionization mass spectrometry. In Table 1 (Schwartz, B. L. et al., J. of the Amer. Soc. for Mass Spec. 6: 459-465, 1995) the observed mass (±s.d.), determined by Electrospray Ionization-Mass Spectrometry, is compared to the mass predicted from the sequence. From the change (±s.e.m.) upon addition of biotin (mass 244.31), we determined how many biotin molecules were bound to each tetramer.
Electrospray ionization mass spectrometry was used to characterize the number of biotin molecules bound per tetramer. Spectra of the different streptavidin tetramers with or without biotin were acquired. […] The other chimeric tetramers bound one biotin per A subunit.

[2] = Electrospray ionization mass spectrometry: biotin molecules bound per avidin tetramer; format: binding; conditions: spectra with or without biotin
Procedure: Biospin columns (Bio-Rad) are equilibrated by spinning 5 times in 500 μL of 15 mM ammonium acetate pH 7.8 at 1000 g for 2 min. Then 30-50 μL of 30 μM protein in PBS is buffer-exchanged into 15 mM ammonium acetate pH 7.8 using the pre-equilibrated Biospin columns by spinning for 20 s at 1000 g. To ensure that PBS is completely removed, the flow-through is again buffer-exchanged with a second pre-equilibrated column for 20 s. This procedure also removes free biotin when the starting 30 μM avidin forms are incubated with 200 μM biotin. Less than 2 min before introducing into the mass spectrometer, the buffer-exchanged samples are diluted with a solution of 1:1 15 mM ammonium acetate pH 7.8 and 78% acetonitrile, 0.01% trifluoroacetic acid.
as §1, with “introduces” for “introduced”, “are” for “were”, “is” for “was”
The masses are calculated manually by first determining the charge state. The final mass is determined by multiplying the observed m/z by the charge and subtracting the mass corresponding to the addition of protons to give that charge. This calculation is repeated for each charge state and the mean and standard deviation reported. The spectra are calibrated with tetrameric avidin, after its monomer mass is determined under denaturing conditions. […]

biotin binding per tetramer by mass spectrometry (in words) ([1]; spectra with or without biotin): all four subunits
biotin binding per avidin tetramer by mass spectrometry (in words) [2]: all four subunits
Substance: A4: Wild-type streptavidin with a His6-tag, four Alive subunits (SEQ ID NO:4) [Tetramer A4]
# biotins (bound to each tetramer) ([1]; from mass change upon addition of biotin, 30 μM protein, 200 μM biotin): 4
